Measurements from BindingDB's records for doi:10.1016/S1074-5521(01)00045-X (The Scripps Research Institute, 2001).
Changes are numbered by the printed parent chain.

Assays:
Test in all cases: Inhibition Assay
[1] = biological target: T1, Beta-hexosaminidase subunit beta (Homo sapiens, UniProt P07686)
T1 sequence (P07686 whole entry): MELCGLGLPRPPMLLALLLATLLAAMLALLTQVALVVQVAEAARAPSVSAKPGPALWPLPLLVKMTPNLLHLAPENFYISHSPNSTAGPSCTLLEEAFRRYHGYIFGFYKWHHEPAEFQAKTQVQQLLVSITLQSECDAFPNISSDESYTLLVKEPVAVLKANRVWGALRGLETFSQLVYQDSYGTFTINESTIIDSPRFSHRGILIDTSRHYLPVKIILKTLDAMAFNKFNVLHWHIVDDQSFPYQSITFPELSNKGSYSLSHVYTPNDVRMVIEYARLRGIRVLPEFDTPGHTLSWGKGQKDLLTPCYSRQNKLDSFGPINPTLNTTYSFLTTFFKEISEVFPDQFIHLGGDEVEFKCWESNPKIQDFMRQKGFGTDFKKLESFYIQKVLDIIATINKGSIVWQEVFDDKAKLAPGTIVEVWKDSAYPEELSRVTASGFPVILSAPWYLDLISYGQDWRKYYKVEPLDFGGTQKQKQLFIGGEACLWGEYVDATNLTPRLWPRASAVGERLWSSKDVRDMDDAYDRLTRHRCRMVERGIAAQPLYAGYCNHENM
Method: (§1) Hexosaminidase activity assay was measured by fluorometry, VersaFluor Fluorometer from Bio-Rad.

[2] = biological target: T2, Beta-hexosaminidase subunit beta (Homo sapiens, UniProt P07686); remark: listed apart in the source
T2 sequence (P07686 whole entry): T1 sequence (P07686 whole entry) with L62S
Method: as §1

[3] = biological target: T3, Beta-hexosaminidase subunit alpha (Homo sapiens, UniProt P06865)
T3 sequence (P06865 whole entry): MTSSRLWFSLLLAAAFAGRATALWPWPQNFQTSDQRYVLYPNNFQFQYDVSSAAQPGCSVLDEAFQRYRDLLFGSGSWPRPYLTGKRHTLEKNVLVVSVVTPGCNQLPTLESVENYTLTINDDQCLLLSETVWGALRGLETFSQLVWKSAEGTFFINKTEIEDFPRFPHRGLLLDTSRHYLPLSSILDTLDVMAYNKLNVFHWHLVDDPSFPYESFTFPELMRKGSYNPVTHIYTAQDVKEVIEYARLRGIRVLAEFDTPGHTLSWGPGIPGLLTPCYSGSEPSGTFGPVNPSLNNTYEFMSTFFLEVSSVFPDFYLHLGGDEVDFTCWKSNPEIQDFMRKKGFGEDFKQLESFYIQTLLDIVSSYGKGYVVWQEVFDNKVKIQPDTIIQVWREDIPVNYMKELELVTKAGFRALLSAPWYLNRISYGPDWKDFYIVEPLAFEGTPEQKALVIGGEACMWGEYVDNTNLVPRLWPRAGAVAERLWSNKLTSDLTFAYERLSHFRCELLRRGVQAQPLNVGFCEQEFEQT
Method: as §1

Ki [1] [nM]	Ki [2] [nM]	Ki [3] [nM]	Compound
1200			CC(=O)N[C@H]1CN[C@H](CO)[C@@H](O)[C@@H]1O
	240		CC(=O)N[C@@H]1N[C@H](CO)[C@@H](O)[C@@H]1O [Iminocyclitol, 1]
	65		CC(=O)N[C@H]1[C@@H](O)[C@H](O)[C@@H](CO)N1C [Iminocyclitol, 2]
	40		CC(=O)N[C@H]1N[C@H](CO)[C@@H](O)[C@@H]1O [Iminocyclitol, 3]
	24		CC(=O)N[C@@H]1[C@@H](O)[C@H](O)[C@@H](CO)N1C [Iminocyclitol, 4]
	860		CC(=O)NC1CN(C)C(CO)C(O)C1O (stereo not given) [Iminocyclitol, 6]
	5000	100	CC(=O)N[C@@H]1[C@@H](O)[C@H](O)[C@@H](OS(=O)(=O)O)N1C [Iminocyclitol, 8]
	100000	10000	CC1=NC2C(OC(OS(=O)(=O)O)C(O)C2O)S1 (stereo not given) [Iminocyclitol, 10]
